Laboratory results taken from US20220233503A1, “METHODS OF TREATING SEPSIS WITH SYNAPTIC VESICLE 2A AND/OR 2B BINDING CHEMICAL ENTITIES” (INSTITUT PASTEUR, priority 2016, published 2022).

Columns and labels:
CLP mice [1] = assay: Open field test after sepsis; assay type: in vivo; details: septic mice, 10 days after sepsis, vs saline
Procedure: […] The experimentator was blinded to the experimental group.
Open Field Mice were placed 45 minutes before being held in the experimental room. Single mice were then placed in a squared 40 cm box in an experimental room and captured with a camera during 10 minutes. Mice were tracked using Ethovision XT and their tail, nose and barycenter was marked. The total length walked, the ratio of time spent moving/non moving, the maximum velocity and the mean distance from barycenter to arena's center were recorded. Datas are presented as Mean±SEM.
Datas are presented as mean±SEM. Sepsis presented a persisting effect on locomotor functions:sepsis lowered the distance traveled (E, p<0.05), increased the time spent not moving (F, p<0.05) and the mean distance to center (G, p<0.05) compared to control mice.

CLP mice [2] = assay: Survival after cecal ligature and puncture (CLP) sepsis; assay type: in vivo, C57Bl/6 mice; details: 300 mg/Kg intraperitoneously, within the first four days, placebo 53%, n=212, p<0.001
Procedure: Cecal ligature and puncture: Cecal ligature and puncture on mice were performed under general anesthesia. Briefly, C57Bl/6 mice were anesthetized with an intraperitoneal injection of Xylazine (20 mg/Kg, Rompun 2%, Bayer, Leverkusen, Germany), and Ketamine (100 mg/Kg, Imalgene, Mérial, Lyon, France) in 100 μl of saline solution at 0.9%. After anesthetic administration, mice were placed in a heated cage or surgical table upon awakening to maintain a body temperature at 37° C. Absence of reaction to leg and tail pinch were checked before incision of abdominal wall and peritoneum. Caecum was found with wet cotton swabs and exposed before loose ligation with Mersilk 4.0 (Ethicon, Cincinatti, USA), 2 transfixiant punctures were realized avoiding blood vessels with a 21G needle. Feces were expressed between cotton swabs before suturing abdominal muscles and peritoneum in 2 separate plans.
Analgesia and rehydration of mice were performed with buprenorphine (0.1 mg/Kg, Buprecare, Axience, Pantin, France) every 12 hours until complete recovery. […] Clinical scoring: Sepsis severity was evaluated twice a day until day 4, or normalization of «sepsis score», a previously described score that ranges from 1 to 12. […] Each item was scored 0 or 1, with a total score rang from 0 (normal) to 12 (highly severe). […]

TNF alpha, IL1 beta = assay: ELISA assay on brain parenchyma after sepsis; assay type: in vivo, mice; details: during sepsis
Procedure: FIG. 3C—An ELISA assay was performed on brain parenchyma to detect lower changes in cytokine concentration.

[3] = system: peripheral nervous system; details: septic rats, single dose of 300, 600 or 1200 mg/kg one hour after surgery; cited from earlier work
CLP mice [4] = assay: Novel object location/recognition tests after sepsis; assay type: in vivo; details: septic mice, treated or not
Procedure: (§1) Comportemental tests: Every comportemental tests were started 15 days after sepsis induction. The experimentator was blinded to the experimental group.
Novel Object Recognition Test: Tests comprise three phases: habituation, familiarization and test phase. During the first 20 minutes animals were placed in a transparent arena under a 100 lux light that had three compartments separated with one-holed plexiglass walls. Two objects were used (a plastic power plug and a brass bolt). During the next 10 minutes two similar objects (A,A) were placed in the lateral compartments. We considered that mice were exploring the objects when they were climbing or explore it with their nose. Immediately after mice were replaced in the center of arena and two new objects (A,B) were placed in the compartments. The ratio of time spent exploring objects A and ratio of time exploring object AB were compared.
(§2) Figures J-M. Morris water Maze test (MWM) and Novel Object Location/Recognition tests.

CLP mice [5] = assay: Splash test after sepsis; assay type: in vivo; details: levetiracetam vs placebo treated CLP mice
Procedure: Splash test: Mice were placed in a new cage 45 minutes before testing in the experimental room. They were then held onto a grid and 200 μl of sucrose 10% solution was spray on their back's fur. They were then placed in the home cage for 5 minutes. The latency before the first time mice groomed, the number of cleaning sessions and the total amount of time spent cleaning during the 5 minute test were measured. Mice were then placed back in their cage. Datas are presented as Mean±SEM.
(§3) FIG. 2: Innate anxiety behavior and depressive phenotype was investigated with the elevated plus maze and splash test.

CLP mice [6] = assay: Morris water maze after sepsis; assay type: in vivo
From the text: as §1
Morris Water Maze was realized as described by Vorhees et al. Nature Protocols 2006. It consisted in a phase of spatial learning and a probe trial. During the first phase the animal learns spatial position of a platform (11 cm diameter) hidden in a swimming pool (120 cm diameter) with opaque water relatively to cues placed on the water tank and in the experimental room. The animal is released in a random quadrant 4 times per day during 7 days. The distance (cm) before reaching the platform, the latency (s) and the proportion of time spent in each quadrant is measured. After each day the learning curve of mice reaching the platform is drawn. If this curve reached a plateau, the probe trial is realized the next day. Probe trial consists in a recall of the spatial reference memory.
as §2

CLP mice [7] = assay: Elevated plus maze test after sepsis; assay type: in vivo; details: levetiracetam vs placebo treated CLP mice
Procedure: Elevated plus maze test: Mice home cage was placed in the experimental room 45 minutes prior any handling. Mice were placed in cross shaped 40 cm maze consisting in 2 open arms without walls and 2 closed arms with 30 cm opaque walls. Mice were tracked with ethovision XT during 5 minutes trials. The maximum velocity, total distance walked, number of entries in an open arm, and amount of time spent in an opened arm or in a closed arm were recorded. Datas are presented as Mean±SEM.
as §3

Compound: CC[C@@H](C(N)=O)N1CCCC1=O (single isomer, unassigned) [levetiracetam]
- open field distance traveled (sepsis-associated lowering) (CLP mice [1]): did not influenced
- open field time spent not moving (CLP mice [1]): did not influenced
- open field mean distance to center (CLP mice [1]; p=0.043 Mann-Whitney): decreased
- survival rate (CLP mice [2]): 81%
- TNF alpha expression in brain parenchyma (ELISA) (TNF alpha, IL1 beta): No difference
- IL1 beta in brain parenchyma (ELISA) (TNF alpha, IL1 beta; p<0.05): increased
- effects on the peripheral nervous system [3]: broad spectrum of protective and restorative effects
- time on novel vs familiar object (CLP mice [4]): same amount of time
- depressive phenotype (splash test) (CLP mice [5]): No difference
- Morris water maze learning to locate the platform (AUC of learning curve) (CLP mice [6]; septic mice): did not present an effect
- Morris water maze test day time in platform quadrant (CLP mice [6]; test day (probe trial), all groups): same amount of time
- innate anxiety (elevated plus maze) (CLP mice [7]): No difference
